Source: patent US20160297828A1, “SPIROCYCLIC COMPOUNDS CONTAINING SPIRO[INDOLYL-3,1'-PYRROLO[3,4-C]PYRROLE] CORE AND SULPHUR-CONTAINING AMINO ACID RESIDUES” (priority 2013, published 2016)
Values joined by “and” are separate entries in the source; they are usually repeats but may differ in a detail not shown here. Equal values may be shown once. Marks after values point to notes of the source that are not given here.

Tests used:
[1] = system: ischemic brain damage in rats; details: 60 mg/kg and 30 mg/kg, 3 and 7 hours after reperfusion; cited from earlier work
liver and pancrea cells = experiment: Pro/antiapoptosis properties, electrophoresis of DNA fragments; format: in vivo; details: intact male Wistar rats; 50 mg/kg
Method: The assessment of pro/antiapoptotosis properties of substances was carried in intact male rats of Wistar line. The test substance were administered for 2 weeks by means of a probe in aqueous suspension containing Tween-80 at a dose of 50 mg/kg of body weight. The animals were euthanized by cervical vertebrae translocation 24 hours after the experiment. The identification of apoptosis of liver and pancrea cells was performed using electrophoretic method. […] Cell necrosis conditioned the “smeared” nature of DNA migration zone. The luminescence band of intact DNA was in the starting area.
The expression of apoptosis manifestations was assessed by registration of DNA fragments via electrophoresis.

rats = experiment: Acute normobaric hypoxic hypoxia with hypercapnia (ANHHH), life duration; format: in vivo; details: preventive administration; SI-86 and SI-108 10 mg/kg iv, mexydol 100 mg/kg ip
Method: The study of antihypoxic activity of 10 original derivatives of 3,2′-spiro-pyrrolo-2-oxindole was conducted on models of acute normobaric hypoxic hypoxia with hypercapnia (ANHHH) and acute asphyxia. ANHHH was modeled by means of rat arrangement into isolated pressure compartments (0.001 m^3). The observation conducted until the death of the animals. The antihypoxic activity was assessed by life duration (in minutes) in relation to the control taken as 100%, by the formula AA=tt/tk×100%, wherein AA—antihypoxic activity (%), tt—life duration of test animals, tc—life duration of control animals.
(§1) The preliminary screening of test substances was performed on ANHHH model. All derivatives were administered in the same dose of 10 mg/kg […] (iv) 1 hour prior to pathological state modeling. […] The effectiveness of a leader compound was evaluated at doses 5; 10 and 15 mg/kg iv. Mexydol was chosen as a reference drug having antihypoxic action in combination with antioxidant and membrane protective activity, which is successfully used in patients with CVA and IM. Mexydol was administered intraperitoneally (ip) at a dose of 100 mg/kg according to similar scheme.

[2] = system: rat heart bioelectrical activity; experiment: Acute asphyxia, duration of heart bioelectrical activity; format: in vivo, rats
Method: Acute asphyxia was modeled in rats anesthetized with propofol (60 mg/kg) intraperitoneally (ip) by complete clamping the trachea at electrocardiogram (EGC) registration. The antihypoxic effect was evaluated by duration of heart bioelectric activity (HBA). This model allows to estimate the heart sensitivity to hypoxia. An isoelectric ECG line for 1 minute considered as HBA termination, the pint of HBA termination corresponded to the last QRS complex on the ECG. The calculation of […] activity was performed by the above formula considering a point of last QRS complex registration as a lifetime.
as §1

[3] = system: rats with intracerebral hemorrhage; experiment: Lethality of rats with intracerebral hemorrhage of average severity; format: in vivo
Method: The chosen model allows to reproduce clinical pattern of […] and is adequate for clinical study of potential neuroprotective agents.
As comparators the following drugs were used: mexydol (“Mexydol” UC Pharmasoft, Russia), 100 mg/kg; citicoline (“Somazina” Ferrer International, SA, Spain), 250 mg/kg; aktovegin (“Aktovegin”, Nycomed, Austria), 16 mg/kg pyracetam (“Pyracetam” Darnitsa, Ukraine), 400 mg/kg. According to the latest clinical guidelines regarding the treatment of patients with CVA approved by the Ministry of Health of Ukraine (Order No. 602 dated 3 Aug. 2012), all these drugs are allowed to be included into schemes for intensive patients therapy with CVA as neuroprotective agents. They were used at recommended doses for preclinical studies (McGrow C. P. Experimental Cerebral Infarction Effects of Pentobarbital in Mongolian Gerbils/C. P. McGrow//Arch. Neurol.-1977.-Vol. 34, No. 6.-P. 334-336). Experimental therapy of acute cerebral ischemia with SI-86 compound and comparator started 1 hour after IUD once a day for 21 days. […] Reference drugs were injected intraperitoneally (ip). Rats of control pathology group were injected by autoblood and as therapy 0.9% NaCI solution was administered calculated for 2 ml/kg iv.
Pseudo-operated rats were exposed to all interventions (anesthesia, craniotomy) excluding autoblood administration that leveled traumatic impact of experimental conditions.
(§2) Evaluation of the ability of animals to learn and memorize of aversive stimulus was examined in the test of conditioned response of passive avoidance (CRPA). The technique is based on innate rat instinct to limited shadowy space. The study in rats was conducted in two-compartment unit consisted of two sections—light and dark. An animal was arranged into light compartment, fixing latency time for entering into the dark compartment, wherein rat received current irritation and ran in the light compartment. CRPA retention was tested every other day under latency time change of rat entering into the dark compartment. Also the number of animals was noted not fully entered the dark chamber. Cerebroprotective efficiency criteria of studied compounds were also animal death term (days) and their mortality rate (in %).
Quantitative data were processed using statistical StatPlus 2009 processing. The statistical significance of differences was assessed by Fisher's angular transformation (lethality outcome), also parametric t Student criterion were used in case of normal distribution of variation series, nonparametric W White criterion—in its absence.

[4] = system: rats with intracerebral hemorrhage; experiment: Conditioned response of passive avoidance (CRPA) in rats with intracerebral hemorrhage; format: in vivo; details: 21st day, n = 15
Method: (§3) Neuroprotective effect of 3,2′-spiro-pyrrolo-2-oxindole derivative (SI-86 compound) was studied on IUD model of moderate severity modeled under propofol anesthesia (60 mg/kg intraperitoneally (ip)) by autoblood administration into the brain internal capsule (stereotactic coordinates of the projection: H=7.0 mm, L=3.0 mm, A=1.5 mm from bregma) ([…]) (Method for reproduction of intracerebral hemorrhage in rats/O. K. Yarosh, S. V. Kyrychenko, S. P. Halimonchyk [et al.]//Circulation and hemostasis.-2005.-No. 1.-P. 77-81). The chosen model allows to reproduce clinical pattern of […] and is adequate for clinical study of potential neuroprotective agents.
(§4) As comparators the following drugs were used: mexydol (“Mexydol” UC Pharmasoft, Russia), 100 mg/kg; citicoline (“Somazina” Ferrer International, SA, Spain), 250 mg/kg; aktovegin (“Aktovegin”, Nycomed, Austria), 16 mg/kg pyracetam (“Pyracetam” Darnitsa, Ukraine), 400 mg/kg. According to the latest clinical guidelines regarding the treatment of patients with CVA approved by the Ministry of Health of Ukraine (Order No. 602 dated 3 Aug. 2012), all these drugs are allowed to be included into schemes for intensive patients therapy with CVA as neuroprotective agents. They were used at recommended doses for preclinical studies (McGrow C. P. Experimental Cerebral Infarction Effects of Pentobarbital in Mongolian Gerbils/C. P. McGrow//Arch. Neurol.-1977.-Vol. 34, No. 6.-P. 334-336). Experimental therapy of acute cerebral ischemia with SI-86 compound and comparator started 1 hour after IUD once a day for 21 days. The SI-86 derivative was investigated in conventionally effective dose of 10 mg/kg […] (iv)-dose that according to the results of our previous study provides maximum antihypoxic activity of SI-86 compound. Reference drugs were injected intraperitoneally (ip). Rats of control pathology group were injected by autoblood and as therapy 0.9% NaCI solution was administered calculated for 2 ml/kg […].
as §2

[5] = system: rats with intracerebral hemorrhage; experiment: Neurological deficit (C. P. McGrow stroke-index scale) in rats with intracerebral hemorrhage; format: in vivo; details: n = 15
Method: as §3, §4
Neurological deficit in animals with acute CVA respectively in acute (4th day) and recovery (21 st day) periods was measured on C. P. McGrow stroke-index scale. The state severity was determined by amount of relevant points: to 3 points-mild, 3 to 7 points-average, above 7 points-severe degree. Pareses, paralyses of limbs, tremors, circus movement, ptoses, lateral positions, ability of rats to be maintained at the core of 15 cm diameter, rotating at the rate of 3 rpm were noted. The animals were tested daily by displaying the amount of points:
one-sided semi-ptosis—0.5 points; one-sided ptosis—1 point; tremor—0.5 points; circus movements—0.5 points; pareses of limbs (for each limb)—1 point; paralyses of limbs (for each limb)—2 points; lateral position—3 points; disability to maintain on rotating rod during 4 minutes—3 points.

[6] = 12 h, SI-86 10 mg/kg iv, mexydol 100, citocoline 250, actovegin 16, pyracetam 400 mg/kg

Structure (SMILES): Cc1c(Cl)cccc1S(=O)(=O)Nc1nc(CC(=O)N2CCN(C)CC2)cs1.Cl [BVT-2733, 3-chloro-2-methyl-N-(4-(2-(4-methylpiperazin-1-yl)-2-oxoethyl)thiazol-2-yl)benzenesulfonamide hydrochloride]
- amount of ischemic brain damage [1]: reduced the amount of ischemic brain damage

Structure (SMILES): CCSCC[C@@H]1N[C@@]2(C(=O)Nc3ccccc32)[C@@H]2C(=O)N(c3ccc(C)cc3)C(=O)[C@H]12 [SI-34, 5′-(4-Methylphenyl)-3′-[2-(ethylthio)ethyl]-3a′,6a′-dihydro-2′H-spiro[indole-3, 1′-pyrrolo[3,4-c]pyrrol]-2,4′,6′(1H,3H′,5H′)-trione]
- level of apoptosis (liver and pancrea cells): closed to that of control group

Structure (SMILES): CCSCC[C@@H]1N[C@@]2(C(=O)N(Cc3ccc(Cl)cc3)c3ccccc32)[C@@H]2C(=O)N(c3ccc(C)cc3)C(=O)[C@H]12 [SI-108, 1-(4-Chloro-benzyl)-3′-[2-(ethylthio)ethyl]-5′-(4-methylphenyl)-3a′,6a′-dihydro-2′H-spiro[indole-3,1′-pyrrolo[3,4-c]pyrrol]-2,4′,6′(1H,3′H,5′H)-trione]
- increase of life duration in rats in relation to control (rats): 28.6%
- Antihypoxic activity ([2]; 10 mg/kg iv): −18.4%
- Duration of heart bioelectrical activity ([2]; 10 mg/kg iv): 9.5 ± 1.1 min

Structure (SMILES): CCc1nc(C)ccc1O.O=C(O)CCC(=O)O [mexydol]
- Lethality, % [3, 6]: 0/0%*^#
- Lethality, abs. [3, 6]: 0/0%*^#
- Lethality, abs. ([3]; 24 h, same doses): 0/0%*^#
- cerebroprotective protection ([3]; 24 h observation, SI-86 10, mexydol 100, citicoline 250 mg/kg): 100%
- Lethality, % ([3]; 48 h, same doses): 7.9%
- Lethality, abs. ([3]; 48 h, same doses): 3
- Lethality, % ([3]; 72 h, same doses): 10.5%
- Lethality, abs. ([3]; 72 h, same doses): 4
- Lethality, % ([3]; 96 h, same doses): 13.2%
- Lethality, abs. ([3]; 96 h, same doses): 5
- reduction of mortality in rats at the end of the observation period relative to control ([3]; within 4 days of therapy, same doses): 17.2%
- Latent period for entrance into dark compartment, prior study ([4]; SI-86 10 mg/kg iv, mexydol 100, citocoline 250, actovegin 16, pyracetam 400 mg/kg ip): 11.30 ± 0.47°*^#$ s
- Latent period for entrance into dark compartment, 24 hours after study ([4]; same doses): 106.80 ± 2.77°*^#•$ s
- neurological deficit, average point under C. P. McGrow scale ([5]; day 4, SI-86 10 mg/kg iv, mexydol 100, citocoline 250, actovegin 16, pyracetam 400 mg/kg ip): 4.30 ± 0.25°*^#•$ points
- neurological deficit, average point under C. P. McGrow scale ([5]; day 21, same doses): 3.8 points and 3.80 ± 0.21°*^#•$ points
- increase of life duration in rats in relation to control (rats): 80.2%
- Antihypoxic activity ([2]; 100 mg/kg ip): +50.9%
- Duration of heart bioelectrical activity ([2]; 100 mg/kg ip): 17.5 ± 0.5 min
